Data as given in the supplement of paper PMC10307832.

What was measured:
Test in all cases: relative viability (nuclei count vs DMSO), 5 days (fraction); higher = more cells survive
[1] = compound: O=C(Nc1cccc(C(F)(F)F)c1)Nc1cc(S(=O)(=O)NC2CC2)ccc1-c1ccsc1 [AGI-6780] + Cc1cc(Nc2cc(N3CCN(C)CC3)nc(Sc3ccc(NC(=O)C4CC4)cc3)n2)n[nH]1 [Tozasertib] (partner 0.1 µM)
In short: (§1)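 One day after seeding in 1536-well plates, lung cancer cell lines were dosed by pin tool. Dosing was either single-drug or a fixed anchor-drug dose plus five library-drug doses (not always all listed) in √10 steps. After 5 days, nuclei were stained in one fix-and-stain step and counted on 4× images, and relative viability is the nuclei count of treated wells over that of vehicle wells, given as the median of duplicate plates.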

[2] = compound: O=C(Nc1cccc(C(F)(F)F)c1)Nc1cc(S(=O)(=O)NC2CC2)ccc1-c1ccsc1 [AGI-6780] + Cc1nc(NC(=O)N2CCC[C@H]2C(N)=O)sc1-c1ccnc(C(C)(C)C(F)(F)F)c1 [Alpelisib] (partner 2 µM)
In short: as §1

[3] = compound: O=C(Nc1cccc(C(F)(F)F)c1)Nc1cc(S(=O)(=O)NC2CC2)ccc1-c1ccsc1 [AGI-6780] + Cc1nc(Nc2ncc(C(=O)Nc3c(C)cccc3Cl)s2)cc(N2CCN(CCO)CC2)n1 [Dasatinib] (partner 0.075 µM)
In short: as §1

[4] = compound: O=C(Nc1cccc(C(F)(F)F)c1)Nc1cc(S(=O)(=O)NC2CC2)ccc1-c1ccsc1 [AGI-6780] + CCNC(=O)c1noc(-c2cc(C(C)C)c(O)cc2O)c1-c1ccc(CN2CCOCC2)cc1 [Luminespib] (partner 0.01 µM)
In short: as §1

Row | Cell Line | relative viability ([1]; first compound 0.08 µM) | relative viability ([1]; first compound 0.253 µM) | relative viability ([1]; first compound 0.8 µM) | relative viability ([1]; first compound 2.53 µM) | relative viability ([1]; first compound 8 µM) | relative viability ([2]; first compound 0.08 µM) | relative viability ([2]; first compound 0.253 µM) | relative viability ([2]; first compound 0.8 µM) | relative viability ([2]; first compound 2.53 µM) | relative viability ([2]; first compound 8 µM) | relative viability ([3]; first compound 0.08 µM) | relative viability ([3]; first compound 0.253 µM) | relative viability ([3]; first compound 0.8 µM) | relative viability ([3]; first compound 2.53 µM) | relative viability ([3]; first compound 8 µM) | relative viability ([4]; first compound 0.08 µM) | relative viability ([4]; first compound 0.253 µM) | relative viability ([4]; first compound 0.8 µM) | relative viability ([4]; first compound 2.53 µM) | relative viability ([4]; first compound 8 µM)
1 | HCC-366 | 0.102 | 0.184 | 0.0941 | 0.0598 | 0.0437 | 0.589 | 0.442 | 0.441 | 0.278 | 0.417 | 0.678 | 0.608 | 0.684 | 0.245 | 0.556 |  |  |  |  | 
2 | HCC-827 | 0.226 | 0.433 | 0.41 | 0.405 | 0.432 | 0.937 | 0.971 | 0.986 | 0.952 | 0.955 | 0.363 | 0.23 | 0.337 | 0.273 | 0.293 | 0.584 | 0.586 | 0.707 | 0.467 | 0.454
3 | HOP-62 | 0.328 | 0.366 | 0.398 | 0.302 | 0.408 | 0.923 | 0.985 | 0.986 | 1.14 | 1.27 | 0.713 | 0.642 | 0.633 | 0.634 | 0.63 | 0.963 | 0.983 | 0.925 | 1 | 0.95
4 | IA-LM |  |  |  |  |  | 0.858 | 0.846 | 0.719 | 0.797 | 0.707 |  |  |  |  |  |  |  |  |  | 
5 | LC-2-ad | 0.433 | 0.477 | 0.447 | 0.327 | 0.468 | 0.945 | 0.983 | 0.897 | 0.862 | 0.826 | 0.604 | 0.573 | 0.677 | 0.482 | 0.515 | 1 | 0.915 | 1.11 | 1.05 | 0.921
6 | LCLC-97TM1 | 0.217 | 0.265 | 0.291 | 0.195 | 0.197 | 0.211 | 0.246 | 0.393 |  | 0.351 | 0.881 | 0.887 | 0.868 | 0.654 | 0.817 | 0.814 | 0.703 | 0.876 | 0.71 | 0.714
7 | LCLC-103H | 0.492 | 0.475 | 0.51 | 0.451 | 0.562 | 0.916 | 1.01 | 0.906 | 0.983 | 0.78 | 0.462 | 0.565 | 0.51 | 0.318 | 0.503 | 1.07 | 0.896 | 0.986 | 0.971 | 0.963
8 | LK-2 | 0.178 | 0.16 | 0.147 |  | 0.162 | 1.27 | 1.1 | 1.29 |  | 0.986 | 0.242 | 0.298 | 0.286 |  | 0.315 | 0.189 | 0.169 | 0.183 |  | 0.202
9 | LOU-NH91 | 0.725 | 0.642 | 0.63 | 0.583 | 0.64 | 0.743 | 0.699 | 0.685 | 0.646 | 0.721 | 0.533 | 0.516 | 0.553 | 0.531 | 0.558 | 0.411 | 0.337 | 0.436 | 0.328 | 0.305
